Patent US10167262B2, “Herbicidal substituted 3-arylpyrazoles” (FMC CORPORATION, priority 2014, dated 2019)

Experiments:
Format in all cases: in vivo
[1] = tested on: ducksalad (Heteranthera limosa); test: Test B flooded paddy test, plant response rating 0-100; conditions: Flood, 250 g ai/ha; scale 0 to 100 (0 no effect, 100 complete control); 13 to 15 days
Summary of the method: (§1)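 Pots were flooded to 3 cm above the soil surface at treatment, compound applied directly to the paddy water, and that depth held throughout. Plants were kept in a greenhouse for 13 to 15 days, then visually rated against untreated controls.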

rice (Oryza sativa) = test: as above; conditions: Flood, 250 g ai/ha; scale 0 to 100 (0 no effect, 100 complete control); 13 to 15 days
Summary of the method: as §1

[2] = tested on: barnyardgrass (Echinochloa crus-galli); test: as above; conditions: Flood, 250 g ai/ha; scale 0 to 100 (0 no effect, 100 complete control); 13 to 15 days
Summary of the method: as §1

[3] = tested on: sedge, umbrella (small-flower umbrella sedge, Cyperus difformis); test: as above; conditions: Flood, 250 g ai/ha; scale 0 to 100 (0 no effect, 100 complete control); 13 to 15 days
Summary of the method: as §1

[4] = tested on: sandbur (southern sandbur, Cenchrus echinatus); test: Test E pre-/postemergence greenhouse test, plant response rating 0-100; conditions: Cenchrus echinatus, post-emergence, Postemergence, scale 0 to 100; for pest or weed control at 125 g/ha: 125 g ai/ha; for pest or weed control at 500 g/ha: 500 g ai/ha
Summary of the method: (§2)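 Seeds sown in silt loam were treated preemergence, and seedlings in peat-based potting medium were treated postemergence at the 1- to 4-leaf stage (2-18 cm tall). Test chemicals were formulated in a non-phytotoxic solvent mixture with surfactant. After 14-21 days in the greenhouse, injury was rated visually against untreated controls (0 = no effect, 100 = complete control).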

[5] = tested on: palmer pigweed (Amaranthus palmeri); test: as above; conditions: Amaranthus palmeri, post-emergence, Postemergence, scale 0 to 100; for pest or weed control at 125 g/ha: 125 g ai/ha; for pest or weed control at 500 g/ha: 500 g ai/ha
Summary of the method: as §2

[6] = tested on: dayflower (Virginia (VA) dayflower, Commelina virginica); test: as above; conditions: Commelina virginica, post-emergence, Postemergence, scale 0 to 100; for pest or weed control at 125 g/ha: 125 g ai/ha; for pest or weed control at 500 g/ha: 500 g ai/ha
Summary of the method: as §2

[7] = tested on: waterhemp (common waterhemp, Amaranthus rudis); test: as above; conditions: Amaranthus tuberculatus, post-emergence, Postemergence, scale 0 to 100; for pest or weed control at 125 g/ha: 125 g ai/ha; for pest or weed control at 500 g/ha: 500 g ai/ha
Summary of the method: as §2

[8] = tested on: hairy beggarticks (Bidens pilosa); test: as above; conditions: Bidens pilosa, post-emergence, Postemergence, scale 0 to 100; for pest or weed control at 125 g/ha: 125 g ai/ha; for pest or weed control at 500 g/ha: 500 g ai/ha
Summary of the method: as §2

[9] = tested on: Brazilian crabgrass (Digitaria horizontalis); test: as above; conditions: Digitaria horizontalis, post-emergence, Postemergence, scale 0 to 100, read-out: Plant response rating, Crabgrass, Brazil; for pest or weed control at 125 g/ha: 125 g ai/ha; for pest or weed control at 500 g/ha: 500 g ai/ha
Summary of the method: as §2

[10] = tested on: wild poinsettia (Euphorbia heterophylla); test: as above; conditions: Euphorbia heterophylla, post-emergence, Postemergence, scale 0 to 100, read-out: Plant response rating, Poinsettia, Wild; for pest or weed control at 125 g/ha: 125 g ai/ha; for pest or weed control at 500 g/ha: 500 g ai/ha
Summary of the method: as §2

[11] = tested on: barnyardgrass (Echinochloa crus-galli); test: as above; conditions: Echinochloa crus-galli, post-emergence, Postemergence, scale 0 to 100; for pest or weed control at 125 g/ha: 125 g ai/ha; for pest or weed control at 500 g/ha: 500 g ai/ha
Summary of the method: as §2

[12] = tested on: arrowleaf sida (Sida rhombifolia); test: as above; conditions: Sida rhombifolia, post-emergence, Postemergence; for pest or weed control at 125 g/ha: 125 g ai/ha; for pest or weed control at 500 g/ha: 500 g ai/ha, scale 0 to 100 (0 no effect, 100 complete control)
Summary of the method: as §2

[13] = tested on: fall panicum (Panicum dichotomiflorum); test: as above; conditions: Panicum dichotomiflorum, post-emergence, Postemergence, scale 0 to 100; for pest or weed control at 125 g/ha: 125 g ai/ha
Summary of the method: as §2

SMILES: CCOC(OCC)(c1ccccc1)c1c[nH]nc1-c1cc(Cl)cc(Cl)c1 [Compound 14, 3-(3,5-dichlorophenyl)-4-(diethoxyphenylmethyl)-1H-pyrazole]
- Plant response rating, Ducksalad [1]: 0
- Plant response rating, Rice (rice (Oryza sativa)): 0
- Plant response rating, Barnyardgrass [2]: 0
- Plant response rating, Sedge, Umbrella [3]: 0
- pest or weed control at 31 g/ha ([4]; 31 g ai/ha): 0%
- pest or weed control at 62 g/ha ([4]; 62 g ai/ha): 0%
- pest or weed control at 125 g/ha [4]: 0%
- pest or weed control at 250 g/ha ([4]; 250 g ai/ha): 0%
- pest or weed control at 500 g/ha [4]: 0%
- pest or weed control at 31 g/ha ([5]; 31 g ai/ha): 80%
- pest or weed control at 62 g/ha ([5]; 62 g ai/ha): 90%
- pest or weed control at 125 g/ha [5]: 95%
- pest or weed control at 250 g/ha ([5]; 250 g ai/ha): 100%
- pest or weed control at 500 g/ha [5]: 100%
- pest or weed control at 31 g/ha ([6]; 31 g ai/ha): 0%
- pest or weed control at 62 g/ha ([6]; 62 g ai/ha): 0%
- pest or weed control at 125 g/ha [6]: 0%
- pest or weed control at 250 g/ha ([6]; 250 g ai/ha): 0%
- pest or weed control at 500 g/ha [6]: 0%
- pest or weed control at 31 g/ha ([7]; 31 g ai/ha): 90%
- pest or weed control at 62 g/ha ([7]; 62 g ai/ha): 95%
- pest or weed control at 125 g/ha [7]: 98%
- pest or weed control at 250 g/ha ([7]; 250 g ai/ha): 100%
- pest or weed control at 500 g/ha [7]: 100%
- pest or weed control at 31 g/ha ([8]; 31 g ai/ha): 80%
- pest or weed control at 62 g/ha ([8]; 62 g ai/ha): 90%
- pest or weed control at 125 g/ha [8]: 95%
- pest or weed control at 250 g/ha ([8]; 250 g ai/ha): 95%
- pest or weed control at 500 g/ha [8]: 98%
- pest or weed control at 31 g/ha ([9]; 31 g ai/ha): 0%
- pest or weed control at 62 g/ha ([9]; 62 g ai/ha): 0%
- pest or weed control at 125 g/ha [9]: 0%
- pest or weed control at 250 g/ha ([9]; 250 g ai/ha): 0%
- pest or weed control at 500 g/ha [9]: 0%
- pest or weed control at 31 g/ha ([10]; 31 g ai/ha): 0%
- pest or weed control at 62 g/ha ([10]; 62 g ai/ha): 0%
- pest or weed control at 125 g/ha [10]: 0%
- pest or weed control at 250 g/ha ([10]; 250 g ai/ha): 10%
- pest or weed control at 500 g/ha [10]: 5%
- pest or weed control at 31 g/ha ([11]; 31 g ai/ha): 0%
- pest or weed control at 62 g/ha ([11]; 62 g ai/ha): 0%
- pest or weed control at 125 g/ha [11]: 0%
- pest or weed control at 250 g/ha ([11]; 250 g ai/ha): 0%
- pest or weed control at 500 g/ha [11]: 10%
- pest or weed control at 31 g/ha ([12]; 31 g ai/ha, scale 0 to 100): 80%
- pest or weed control at 62 g/ha ([12]; 62 g ai/ha, scale 0 to 100): 90%
- pest or weed control at 125 g/ha ([12]; scale 0 to 100): 90%
- pest or weed control at 250 g/ha ([12]; 250 g ai/ha, scale 0 to 100): 90%
- pest or weed control at 500 g/ha [12]: 95%
- pest or weed control at 31 g/ha ([13]; 31 g ai/ha): 0%
- pest or weed control at 62 g/ha ([13]; 62 g ai/ha): 0%
- pest or weed control at 125 g/ha [13]: 0%
- pest or weed control at 250 g/ha ([13]; 250 g ai/ha): 0%

SMILES: COC(OC)(c1ccccc1)c1c[nH]nc1-c1cc(Cl)cc(Cl)c1 [Compound 13, 3-(3,5-dichlorophenyl)-4-(dimethoxyphenylmethyl)-1H-pyrazole]
- Plant response rating, Ducksalad [1]: 0
- Plant response rating, Rice (rice (Oryza sativa)): 0
- Plant response rating, Barnyardgrass [2]: 0
- Plant response rating, Sedge, Umbrella [3]: 0
- pest or weed control at 125 g/ha [4]: 0%
- pest or weed control at 500 g/ha [4]: 0%
- pest or weed control at 125 g/ha [5]: 85%
- pest or weed control at 500 g/ha [5]: 95%
- pest or weed control at 125 g/ha [6]: 10%
- pest or weed control at 500 g/ha [6]: 10%
- pest or weed control at 125 g/ha [7]: 90%
- pest or weed control at 500 g/ha [7]: 95%
- pest or weed control at 125 g/ha [8]: 60%
- pest or weed control at 500 g/ha [8]: 90%
- pest or weed control at 125 g/ha [9]: 0%
- pest or weed control at 500 g/ha [9]: 0%
- pest or weed control at 125 g/ha [10]: 0%
- pest or weed control at 500 g/ha [10]: 0%
- pest or weed control at 125 g/ha [11]: 15%
- pest or weed control at 500 g/ha [11]: 40%
- pest or weed control at 125 g/ha ([12]; scale 0 to 100): 80%
- pest or weed control at 500 g/ha [12]: 90%
- pest or weed control at 125 g/ha [13]: 0%
- pest or weed control at 500 g/ha ([13]; 500 g ai/ha): 0%
